According to patent publication US6903112B2, “Heterocyclylindazole and -azaindazole compounds as 5-hydroxytryptamine-6 ligands” (Wyeth, priority 2000, dated 2005):

Biological target: T1, human cloned 5-HT6 receptors (Homo sapiens, UniProt P50406)
T1 construct: expressed in transfected cells; host or cells: Hela cells
Assay: 5-HT6 binding affinity, [3H]-LSD displacement on Hela cell membranes
Details: [3H]-LSD 3.0 nM; membranes of Hela cells expressing human cloned 5-HT6 receptors; 120 min at room temperature
Experimental: The affinity of test compounds for the serotonin 5-HT6 receptor is evaluated in the following manner. Cultured Hela cells expressing human cloned 5-HT6 receptors are harvested and centrifuged at low speed (1,000×g) for 10.0 min to remove the culture media. The harvested cells are suspended in half volume of fresh physiological phosphate buffered saline solution and recentrifuged at the same speed. This operation is repeated. The collected cells are then homogenized in ten volumes of 50 mM Tris.HCl (pH 7.4) and 0.5 mM EDTA. The homogenate is centrifuged at 40,000×g for 30.0 min and the precipitate is collected. The obtained pellet is resuspended in 10 volumes of Tris.HCl buffer and recentrifuged at the same speed. The final pellet is suspended in a small volume of Tris.HCl buffer and the tissue protein content is determined in aliquots of 10-25 μl volumes. Bovine Serum Albumin is used as the standard in the protein determination according to the method described in Lowry et al., J. Biol. Chem., 193:265 (1951). The volume of the suspended cell membranes is adjusted to give a tissue protein concentration of 1.0 mg/ml of suspension. The prepared membrane suspension (10 times concentrated) is aliquoted in 1.0 ml volumes and stored at −70° C. until used in subsequent binding experiments.
Binding experiments are performed in a 96 well microtiter plate format, in a total volume of 200 μl. […] The test compounds are added in 20.0 μl volume.
The reaction is allowed to proceed in the dark for 120 min at room temperature, at which time, the bound ligand-receptor complex is filtered off on a 96 well unifilter with a Packard Filtermate® 196 Harvester. The bound complex caught on the filter disk is allowed to air dry and the radioactivity is measured in a Packard TopCount® equipped with six photomultiplier detectors, after the addition of 40.0 μl Microscint®-20 scintillant to each shallow well. The unifilter plate is heat-sealed and counted in a PackardTopCount® with a tritium efficiency of 31.0%.
Binding in the presence of varying concentrations of test compound is expressed as a percentage of specific binding in the absence of test compound. The results are plotted as log % bound versus log concentration of test compound. […] A linear regression line of data points is plotted, from which the IC50 value is determined and the Ki value is determined based upon the following equation: Ki=IC50/(1+L/KD) where L is the concentration of the radioactive ligand used and KD is the dissociation constant of the ligand for the receptor, both expressed in nM.

T1 sequence (P50406 whole entry): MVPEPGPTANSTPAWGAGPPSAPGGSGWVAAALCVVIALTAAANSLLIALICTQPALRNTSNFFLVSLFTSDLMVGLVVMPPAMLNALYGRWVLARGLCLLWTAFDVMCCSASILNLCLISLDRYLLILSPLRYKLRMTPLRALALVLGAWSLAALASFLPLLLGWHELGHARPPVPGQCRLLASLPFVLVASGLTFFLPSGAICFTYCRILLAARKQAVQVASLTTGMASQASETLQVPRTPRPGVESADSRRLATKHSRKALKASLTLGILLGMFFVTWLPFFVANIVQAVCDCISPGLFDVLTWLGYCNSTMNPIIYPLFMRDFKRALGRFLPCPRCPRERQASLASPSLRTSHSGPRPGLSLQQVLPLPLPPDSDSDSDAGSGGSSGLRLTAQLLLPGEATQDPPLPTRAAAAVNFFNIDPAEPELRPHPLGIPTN

| Compound | Ki |
| --- | --- |
| Cc1ccc(S(=O)(=O)n2cc(C3CCN(Cc4ccccc4)C3)c3ccccc32)cc1 (stereo not drawn) [Example 18, 3-(1-benzylpyrrolidin-3-yl)-1-(4-methylphenylsulfonyl)-1H-indole] | 8 nM |
| O=S(=O)(c1ccc(Cl)c(Cl)c1)n1cc(C2CCN(Cc3ccccc3)C2)c2ccccc21 (stereo not drawn) [Example 21, 3-(1-benzylpyrrolidin-3-yl)-1-(3,4-dichlorophenyl-sulfonyl)-1H-indole] | 15 nM |
| O=S(=O)(c1ccccc1Br)n1cc(C2CCN(Cc3ccccc3)C2)c2ccccc21 (stereo not drawn) [Example 22, 3-(1-benzylpyrrolidin-3-yl)-1-(2-bromophenylsulfonyl)-1H-indole] | 14 nM |
| Cc1nc(N)sc1S(=O)(=O)n1cc(C2CCN(Cc3ccccc3)C2)c2ccccc21 (stereo not drawn) [Example 23, 5-[3-(1-benzylpyrrolidin-3-yl)-indole-1-sulfonyl]-4-methyl-thiazol-2-ylamine] | 3 nM |
| O=S(=O)(c1ccc(Br)s1)n1cc(C2CCN(Cc3ccccc3)C2)c2ccccc21 (stereo not drawn) [Example 24, 3-(1-benzylpyrrolidin-3-yl)-1-[(5-bromothien-2-yl)sulfonyl]-1H-indole] | 9 nM |
| O=S(=O)(c1ccccc1)n1cc(C2CCCNC2)c2ccccc21 (stereo not drawn) [Example 31, 1-Benzenesulfonyl-3-piperidin-3-yl-1H-indole] | 2 nM |
| O=S(=O)(c1ccc(Cl)s1)n1cc(C2CCCNC2)c2ccccc21 (stereo not drawn) [Example 33, 1-(5-chloro-thiophene-2-sulfonyl)-3-piperidin-3-yl-1H-indole] | 3 nM |
| O=S(=O)(c1cccc(Cl)c1)n1cc(C2CCCNC2)c2ccccc21 (stereo not drawn) [Example 34, 1-(3-chloro-benzenesulfonyl)-3-piperidin-3-yl-1H-indole] | 2 nM |
| O=S(=O)(c1ccc(F)c(F)c1)n1cc(C2CCCNC2)c2ccccc21 (stereo not drawn) [Example 35, 1-(3,4-difluoro-benzenesulfonyl)-3-piperidin-3-yl-1H-indole] | 7 nM |
| O=S(=O)(c1ccc(C(F)(F)F)cc1)n1cc(C2CCCNC2)c2ccccc21 (stereo not drawn) [Example 38, 1-(4-trifluoromethy-benzenesulfonyl)-3-piperidin-3-yl-1H-indole] | 10 nM |
| Cc1ccc(S(=O)(=O)n2cc(C3CCCNC3)c3ccccc32)cc1Cl (stereo not drawn) [Example 39, 1-(3-chloro-4-methyl-benzenesulfonyl)-3-piperidin-3-yl-1H-indole] | 6 nM |
| O=S(=O)(c1ccc2ccccc2c1)n1cc(C2CCCNC2)c2ccccc21 (stereo not drawn) [Example 41, 1-(2-naphthylenesulfonyl)-3-piperidin-3-yl-1H-indole] | 8 nM |
| O=S(=O)(c1ccc(Cl)s1)n1cc(C2CCCNC2)c2cccnc21 (stereo not drawn) [Example 47, 1-(5-chloro-thiophene-2-sulfonyl)-3-piperidin-3-yl-1H-pyrrolo[2,3-b]pyridine] | 7 nM |
| O=S(=O)(c1cccc(Cl)c1)n1cc(C2CCCNC2)c2cccnc21 (stereo not drawn) [Example 48, 1-(3-chloro-benzenesulfonyl)-3-piperidin-3-yl-1H-pyrrolo[2,3-b]pyridine] | 6 nM |

Other lines, results leading:

| Ki | Compound |
| --- | --- |
| 2 nM | CN1CCC(c2cn(S(=O)(=O)c3ccc(F)cc3)c3ccccc23)C1 (stereo not drawn) [Example 4, 1-(4-fluorophenylsulfonyl)-3-(1-methyl-pyrrolidin-3-yl)-1H-indole] |
| 1 nM | CN1CCC(c2cn(S(=O)(=O)c3ccc(Cl)cc3)c3ccccc23)C1 (stereo not drawn) [Example 6, 1-(4-chlorophenylsulfonyl)-3-(1-methylpyrrolidin-3-yl)-1H-indole] |
| 3 nM | CN1CCC(c2cn(S(=O)(=O)c3ccc4ccccc4c3)c3ccccc23)C1 (stereo not drawn) [Example 8, 1-(naphth-2-ylsulfonyl)-3-(1-methylpyrrolidin-3-yl)-1H-indole] |
| 1 nM | CN1CCC(c2cn(S(=O)(=O)c3ccc(N)cc3)c3ccccc23)C1 (stereo not drawn) [Example 9, 1-(4-aminophenylsulfonyl)-3-(1-methylpyrrolidin-3-yl)-1H-indole] |
| 5 nM | COc1ccc(S(=O)(=O)n2cc(C3CCN(C)C3)c3ccccc32)cc1OC (stereo not drawn) [Example 10, 1-(3,4-dimethoxyphenylsulfonyl)-3-(1-methylpyrrolidin-3-yl)-1H-indole] |
| 3 nM | CN1CCC(c2cn(S(=O)(=O)c3ccc(Cl)c(Cl)c3)c3ccccc23)C1 (stereo not drawn) [Example 11, 1-(3,4-dichlorophenylsulfonyl)-3-(1-methylpyrrolidin-3-yl)-1H-indole] |
| 4 nM | CN1CCC(c2cn(S(=O)(=O)c3cc(Cl)c(Cl)s3)c3ccccc23)C1 (stereo not drawn) [Example 12, 1-[(4,5-dichlorothien-2-yl)sulfonyl]-3-(1-methyl-pyrrolidin-3-yl)-1H-indole] |
| 1 nM | CN1CCC(c2cn(S(=O)(=O)c3ccccc3Br)c3ccccc23)C1 (stereo not drawn) [Example 13, 1-(2-bromophenylsulfonyl)-3-(1-methylpyrrolidin-3-yl)-1H-indole] |
| 1 nM | CN1CCC(c2cn(S(=O)(=O)c3ccc(I)cc3)c3ccccc23)C1 (stereo not drawn) [Example 16, 1-(4-iodophenylsulfonyl)-3-(1-methylpyrrolidin-3-yl)-1H-indole] |
| 2 nM | CN1CCC(c2cn(S(=O)(=O)c3ccccc3I)c3ccccc23)C1 (stereo not drawn) [Example 17, 1-(2-iodophenylsulfonyl)-3-(1-methylpyrrolidin-3-yl)-1H-indole] |
| 1 nM | Nc1ccc(S(=O)(=O)n2cc(C3CCN(Cc4ccccc4)C3)c3ccccc32)cc1 (stereo not drawn) [Example 20, 1-(4-aminophenylsulfonyl)-3-(1-benzylpyrrolidin-3-yl)-1H-indole] |
| 5 nM | CC(C)c1ccc(S(=O)(=O)n2cc(C3CCCNC3)c3ccccc32)cc1 (stereo not drawn) [Example 32, 1-(4-isopropyl-benzenesulfonyl)-3-piperidin-3-yl-1H-indole] |
| 10 nM | COc1ccc(S(=O)(=O)n2cc(C3CCCNC3)c3ccccc32)cc1 (stereo not drawn) [Example 37, 1-(4-methoxy-benzenesulfonyl)-3-piperidin-3-yl-1H-indole] |
